# Results taken from PubChem BioAssay AID2060910 (Molecular Pharmacology Branch, DTP, NCI, 2025).
# System: 242566-281-R-J2-PDC complex spheroid viability
# Test: Anticancer human tumor 242566-281-R-J2-PDC patient-derived pancreatic carcinoma cell line growth inhibition [RAS]
# Settings: for IC50: curve of first compound; for viability, T/C: stronger effect = lower value
# How it was run: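 Tumour cells grown as complex spheroids with HUVEC endothelial cells and mesenchymal stem cells, treated with RAS pathway inhibitor combinations. Each agent spans half-log steps from near clinical Cmax, or 10 microM where Cmax is unknown.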
# [1] = second compound 0.00316 µM, first compound 0.000949 µM
# [2] = second compound 0.00316 µM, first compound 0.003 µM
# [3] = second compound 0.00316 µM, first compound 0.00949 µM
# [4] = second compound 0.00316 µM, first compound 0.03 µM
# [5] = second compound 0.00316 µM, first compound 0.0949 µM
# [6] = second compound 0.00316 µM, first compound 0.3 µM
# [7] = second compound 0.01 µM, first compound 0.000949 µM
# [8] = second compound 0.01 µM, first compound 0.003 µM
# [9] = second compound 0.01 µM, first compound 0.00949 µM
# [10] = second compound 0.01 µM, first compound 0.03 µM
# [11] = second compound 0.01 µM, first compound 0.0949 µM
# [12] = second compound 0.01 µM, first compound 0.3 µM
# [13] = second compound 0.0316 µM, first compound 0.000949 µM
# [14] = second compound 0.0316 µM, first compound 0.003 µM
# [15] = second compound 0.0316 µM, first compound 0.00949 µM
# [16] = second compound 0.0316 µM, first compound 0.03 µM
# [17] = second compound 0.0316 µM, first compound 0.0949 µM
# [18] = second compound 0.0316 µM, first compound 0.3 µM
# [19] = second compound 0.1 µM, first compound 0.000949 µM
# [20] = second compound 0.1 µM, first compound 0.003 µM
# [21] = second compound 0.1 µM, first compound 0.00949 µM
# [22] = second compound 0.1 µM, first compound 0.03 µM
# [23] = second compound 0.1 µM, first compound 0.0949 µM
# [24] = second compound 0.1 µM, first compound 0.3 µM
# [25] = second compound 0.316 µM, first compound 0.000949 µM
# [26] = second compound 0.316 µM, first compound 0.003 µM
# [27] = second compound 0.316 µM, first compound 0.00949 µM
# [28] = second compound 0.316 µM, first compound 0.03 µM
# [29] = second compound 0.316 µM, first compound 0.0949 µM
# [30] = second compound 0.316 µM, first compound 0.3 µM
# [31] = second compound 1 µM, first compound 0.000949 µM
# [32] = second compound 1 µM, first compound 0.003 µM
# [33] = second compound 1 µM, first compound 0.00949 µM
# [34] = second compound 1 µM, first compound 0.03 µM
# [35] = second compound 1 µM, first compound 0.0949 µM
# [36] = second compound 1 µM, first compound 0.3 µM
# [37] = second compound 0.000949 µM, first compound 0.00316 µM
# [38] = second compound 0.000949 µM, first compound 0.01 µM
# [39] = second compound 0.000949 µM, first compound 0.0316 µM
# [40] = second compound 0.000949 µM, first compound 0.1 µM
# [41] = second compound 0.000949 µM, first compound 0.316 µM
# [42] = second compound 0.000949 µM, first compound 1 µM
# [43] = second compound 0.003 µM, first compound 0.00316 µM
# [44] = second compound 0.003 µM, first compound 0.01 µM
# [45] = second compound 0.003 µM, first compound 0.0316 µM
# [46] = second compound 0.003 µM, first compound 0.1 µM
# [47] = second compound 0.003 µM, first compound 0.316 µM
# [48] = second compound 0.003 µM, first compound 1 µM
# [49] = second compound 0.00949 µM, first compound 0.00316 µM
# [50] = second compound 0.00949 µM, first compound 0.01 µM
# [51] = second compound 0.00949 µM, first compound 0.0316 µM
# [52] = second compound 0.00949 µM, first compound 0.1 µM
# [53] = second compound 0.00949 µM, first compound 0.316 µM
# [54] = second compound 0.00949 µM, first compound 1 µM
# [55] = second compound 0.03 µM, first compound 0.00316 µM
# [56] = second compound 0.03 µM, first compound 0.01 µM
# [57] = second compound 0.03 µM, first compound 0.0316 µM
# [58] = second compound 0.03 µM, first compound 0.1 µM
# [59] = second compound 0.03 µM, first compound 0.316 µM
# [60] = second compound 0.03 µM, first compound 1 µM
# [61] = second compound 0.0949 µM, first compound 0.00316 µM
# [62] = second compound 0.0949 µM, first compound 0.01 µM
# [63] = second compound 0.0949 µM, first compound 0.0316 µM
# [64] = second compound 0.0949 µM, first compound 0.1 µM
# [65] = second compound 0.0949 µM, first compound 0.316 µM
# [66] = second compound 0.0949 µM, first compound 1 µM
# [67] = second compound 0.3 µM, first compound 0.00316 µM
# [68] = second compound 0.3 µM, first compound 0.01 µM
# [69] = second compound 0.3 µM, first compound 0.0316 µM
# [70] = second compound 0.3 µM, first compound 0.1 µM
# [71] = second compound 0.3 µM, first compound 0.316 µM
# [72] = second compound 0.3 µM, first compound 1 µM
# 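Note: spheroids exposed to compound for 7 days before readout.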
# 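Throughout, for viability, T/C: 100% = DMSO vehicle control wells.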
smiles,measurement,setting,value
CC1(C)CCC(Nc2ncc(C(F)(F)F)c(-c3c[nH]c4c(P(C)(C)=O)c(C#N)ccc34)n2)CN1 (stereo not drawn) + C=CC(=O)N1CCN(c2nc(OCC3CCCN3C)nc3c(F)c(-c4nc(N)cc(C)c4C(F)(F)F)c(Cl)cc23)C(C)C1,IC50,second compound 0.00316 µM,> 300 nM
same,IC50,second compound 0.01 µM,> 300 nM
same,IC50,second compound 0.0316 µM,> 300 nM
same,IC50,second compound 0.1 µM,> 300 nM
same,IC50,second compound 0.316 µM,> 300 nM
same,IC50,second compound 1 µM,> 300 nM
same,"viability, T/C",[1],109%
same,"viability, T/C",[2],161%
same,"viability, T/C",[3],154%
same,"viability, T/C",[4],128%
same,"viability, T/C",[5],146%
same,"viability, T/C",[6],135%
same,"viability, T/C",[7],137%
same,"viability, T/C",[8],151%
same,"viability, T/C",[9],142%
same,"viability, T/C",[10],124%
same,"viability, T/C",[11],158%
same,"viability, T/C",[12],129%
same,"viability, T/C",[13],114%
same,"viability, T/C",[14],173%
same,"viability, T/C",[15],133%
same,"viability, T/C",[16],113%
same,"viability, T/C",[17],138%
same,"viability, T/C",[18],132%
same,"viability, T/C",[19],151%
same,"viability, T/C",[20],130%
same,"viability, T/C",[21],103%
same,"viability, T/C",[22],137%
same,"viability, T/C",[23],138%
same,"viability, T/C",[24],144%
same,"viability, T/C",[25],152%
same,"viability, T/C",[26],144%
same,"viability, T/C",[27],147%
same,"viability, T/C",[28],109%
same,"viability, T/C",[29],143%
same,"viability, T/C",[30],149%
same,"viability, T/C",[31],130%
same,"viability, T/C",[32],139%
same,"viability, T/C",[33],142%
same,"viability, T/C",[34],123%
same,"viability, T/C",[35],128%
same,"viability, T/C",[36],121%
CCc1c2c(nc3ccc(O)cc13)-c1cc3c(c(=O)n1C2)COC(=O)[C@]3(O)CC + C=CC(=O)N1CCN(c2nc(OCC3CCCN3C)nc3c(F)c(-c4nc(N)cc(C)c4C(F)(F)F)c(Cl)cc23)C(C)C1,IC50,second compound 0.00316 µM,31.6 nM
same,IC50,second compound 0.01 µM,34.8 nM
same,IC50,second compound 0.0316 µM,48.8 nM
same,IC50,second compound 0.1 µM,34.5 nM
same,IC50,second compound 0.316 µM,40.9 nM
same,IC50,second compound 1 µM,50.8 nM
same,"viability, T/C",[1],94%
same,"viability, T/C",[2],121%
same,"viability, T/C",[3],84.4%
same,"viability, T/C",[4],51%
same,"viability, T/C",[5],27.1%
same,"viability, T/C",[6],13.1%
same,"viability, T/C",[7],103%
same,"viability, T/C",[8],133%
same,"viability, T/C",[9],82.4%
same,"viability, T/C",[10],56.1%
same,"viability, T/C",[11],26.9%
same,"viability, T/C",[12],12.3%
same,"viability, T/C",[13],112%
same,"viability, T/C",[14],132%
same,"viability, T/C",[15],83.3%
same,"viability, T/C",[16],67.1%
same,"viability, T/C",[17],32.3%
same,"viability, T/C",[18],11.8%
same,"viability, T/C",[19],111%
same,"viability, T/C",[20],129%
same,"viability, T/C",[21],104%
same,"viability, T/C",[22],54%
same,"viability, T/C",[23],23.1%
same,"viability, T/C",[24],16%
same,"viability, T/C",[25],105%
same,"viability, T/C",[26],137%
same,"viability, T/C",[27],77.1%
same,"viability, T/C",[28],63.7%
same,"viability, T/C",[29],28.8%
same,"viability, T/C",[30],14.7%
same,"viability, T/C",[31],104%
same,"viability, T/C",[32],114%
same,"viability, T/C",[33],86.7%
same,"viability, T/C",[34],66%
same,"viability, T/C",[35],32.7%
same,"viability, T/C",[36],10.9%
C=CC(=O)Nc1cc(Nc2nccc(-c3cn(C)c4ccccc34)n2)c(OC)cc1N(C)CCN(C)C + CCn1c(-c2cc(N3CCN(C)CC3)cnc2C(C)OC)c2c3cc(ccc31)-c1csc(n1)CC(NC(=O)C1CC1C)C(=O)N1CCCC(N1)C(=O)OCC(C)(C)C2,IC50,second compound 0.000949 µM,323 nM
same,IC50,second compound 0.003 µM,71.6 nM
same,IC50,second compound 0.00949 µM,< 3.16 nM
same,IC50,second compound 0.03 µM,< 3.16 nM
same,IC50,second compound 0.0949 µM,< 3.16 nM
same,IC50,second compound 0.3 µM,< 3.16 nM
same,"viability, T/C",[37],90.9%
same,"viability, T/C",[38],90%
same,"viability, T/C",[39],61.8%
same,"viability, T/C",[40],75.8%
same,"viability, T/C",[41],51.8%
same,"viability, T/C",[42],25.3%
same,"viability, T/C",[43],76%
same,"viability, T/C",[44],61.4%
same,"viability, T/C",[45],54.9%
same,"viability, T/C",[46],52.2%
same,"viability, T/C",[47],35.2%
same,"viability, T/C",[48],19%
same,"viability, T/C",[49],48.4%
same,"viability, T/C",[50],40.9%
same,"viability, T/C",[51],41.2%
same,"viability, T/C",[52],30.7%
same,"viability, T/C",[53],21.2%
same,"viability, T/C",[54],15.3%
same,"viability, T/C",[55],31.3%
same,"viability, T/C",[56],30.7%
same,"viability, T/C",[57],24%
same,"viability, T/C",[58],22%
same,"viability, T/C",[59],14.8%
same,"viability, T/C",[60],16.7%
same,"viability, T/C",[61],21.2%
same,"viability, T/C",[62],20.6%
same,"viability, T/C",[63],20.1%
same,"viability, T/C",[64],18.1%
same,"viability, T/C",[65],13%
same,"viability, T/C",[66],15.9%
same,"viability, T/C",[67],18.6%
same,"viability, T/C",[68],18.2%
same,"viability, T/C",[69],15.7%
same,"viability, T/C",[70],14%
same,"viability, T/C",[71],14.6%
same,"viability, T/C",[72],14.9%
O=C(c1ccc(F)c(F)c1Nc1ccc(I)cc1F)N1CC(O)([C@@H]2CCCCN2)C1 + CCn1c(-c2cc(N3CCN(C)CC3)cnc2C(C)OC)c2c3cc(ccc31)-c1csc(n1)CC(NC(=O)C1CC1C)C(=O)N1CCCC(N1)C(=O)OCC(C)(C)C2,IC50,second compound 0.000949 µM,35.4 nM
same,IC50,second compound 0.003 µM,12.2 nM
same,IC50,second compound 0.00949 µM,< 3.16 nM
same,IC50,second compound 0.03 µM,< 3.16 nM
same,IC50,second compound 0.0949 µM,< 3.16 nM
same,IC50,second compound 0.3 µM,< 3.16 nM
same,"viability, T/C",[37],89.8%
same,"viability, T/C",[38],71.1%
same,"viability, T/C",[39],44.3%
same,"viability, T/C",[40],42.3%
same,"viability, T/C",[41],29%
same,"viability, T/C",[42],16.6%
same,"viability, T/C",[43],72.4%
same,"viability, T/C",[44],47.5%
same,"viability, T/C",[45],39.8%
same,"viability, T/C",[46],32.4%
same,"viability, T/C",[47],23.1%
same,"viability, T/C",[48],15.4%
same,"viability, T/C",[49],39.9%
same,"viability, T/C",[50],30.8%
same,"viability, T/C",[51],30.6%
same,"viability, T/C",[52],21.9%
same,"viability, T/C",[53],15.2%
same,"viability, T/C",[54],16.2%
same,"viability, T/C",[55],24.9%
same,"viability, T/C",[56],21.4%
same,"viability, T/C",[57],19.8%
same,"viability, T/C",[58],18%
same,"viability, T/C",[59],14.5%
same,"viability, T/C",[60],14%
same,"viability, T/C",[61],21.9%
same,"viability, T/C",[62],17.8%
same,"viability, T/C",[63],17.6%
same,"viability, T/C",[64],14.1%
same,"viability, T/C",[65],11.2%
same,"viability, T/C",[66],12.3%
same,"viability, T/C",[67],17.4%
same,"viability, T/C",[68],16.4%
same,"viability, T/C",[69],13.3%
same,"viability, T/C",[70],14.1%
same,"viability, T/C",[71],10.9%
same,"viability, T/C",[72],11.3%
